Measurements taken from US20150344535A1, “NEUROTROPHIN-TYROSINE KINASE RECEPTOR SIGNALING” (THE UNIVERSITY OF QUEENSLAND, priority 2012, published 2015).

What was measured:
[1] = system: TrkB-expressing cortical neurons; assay: Western blot of phosphorylated Erk1/2 in BDNF-treated cortical neurons; format: cell-based; details: E16 cultured cortical neurons, 15 minutes after BDNF treatment
EGF receptor = molecular target: T1, EGF receptor (Homo sapiens, UniProt P00533); assay: Biotinylated peptide pull down of EGF receptor; format: binding; details: lysate of transfected HEK293 cells, FIG. 4D
T1 construct: GFP; expressed in transfected cells; host or cells: HEK293
Experimental: (§1) For peptide pull down assays, the biotinylated c29 or LC1 control peptides were incubated with protein A-sepharose beads or Dynabeads MyOne Streptavidin T1 (Invitrogen) overnight at 4° C. Cell lysates were then added to the peptide-protein A-sepharose complex or Dynabeads MyOne Streptavidin T1 and incubated for 3 hours at 4° C. Peptide-receptor complexes were washed extensively with RIPA lysis buffer and eluted by boiling in Laemmli sample buffer. For p75^NTR construct immunoprecipitations, HEK293 cells were treated with NGF at 50 ng/ml for 10 minutes 48 hours after transfection with 1 μg DNA per well. Cells were immediately harvested in ice-cold phosphate buffered saline (PBS) and washed twice, then lysed in 1 ml of lysis buffer. Cell lysates were pre-cleared in 75 μl (1:2) protein-G sepharose: PBS by rotation end-over-end for 2 hours at 4′C. Lysates were then incubated with 3-5 μg antibody, either mouse-anti-YFP/GFP (Roche) or rabbit-anti-human p75^NTR intracellular domain antibody (Promega), and rotated end-over-end for 2 hours at 4° C.
Immunoprecipitation was performed by the addition of 75 μl (1:2) protein-G sepharose: PBS and incubation end-over-end for 16 hours at 4° C. The immunoprecipitate was washed 4 times with 1 ml of PBS then eluted in 60 μl 2×LDS sample buffer. […]

[2] = system: C7-8 spinal cord motor neurons; assay: Motor neuron axotomy (median and ulnar nerve) in neonatal rat; format: in vivo; details: P4 rat pups, peptide in gel foam at axonal stump, 5-day recovery, relative to contralateral side
Experimental: Median and ulnar nerve axotomy was performed on 4 day-old Wistar rat pups as previously described (Cheema et al., 1996). Peptides (c29 and vehicle only; 100 nM) were applied via a 1 mm^3 cube of pluronic gel foam that was sutured to the proximal axonal stump (Cheema et al., 1996). After 5 days the animals were perfused with a 4% solution of paraformaldehyde in phosphate buffer. Cervical spinal cords were removed, after which serial sections were cut at 40 μm, mounted onto gelatin-coated slides and stained in 0.1% cresyl violet. Details of the counting procedure have been described previously (Cheema et al., 1994).
We next investigated whether c29 could prevent motor neuron death following growth factor withdrawal in vivo using a neonatal rat axotomy model. Following unilateral median and ulnar nerve transections of postnatal day 4 (P4) rat pups, c29 or the vehicle protein transduction domain (PTD4) was applied to the proximal site of transaction in a small cube of gel foam. After a 5-day recovery, the number of surviving C7-8 spinal cord motor neurons relative to the contralateral side was determined by histological counts. Such an axotomy causes 50% of the ipsilateral motor neurons to die (Cheema et al., 1996), with control peptide treatment having no effect on this degree of cell death (FIG. 7E, F). […]

TrkA = assay: Biotinylated peptide pull down of TrkA; format: binding; details: lysate of transfected HEK293 cells, FIG. 4D
Experimental: as §1
Immunoprecipitation was performed by the addition of 75 μl (1:2) protein-G sepharose: PBS and incubation end-over-end for 16 hours at 4° C. The immunoprecipitate was washed 4 times with 1 ml of PBS then eluted in 60 μl 2×LDS sample buffer. For immunoblotting, samples were boiled for 5 minutes, separated by SDS-PAGE and transferred onto nitrocellulose membranes, then western blotted using standard protocols (see Example 1 for antibodies used).
The c29 peptide was labelled with biotin and attached to a sepharose bead column. Lysates from cells was passed over the column followed by several wash steps. The proteins that bound to the c29 peptide (proteins that are pulled down) were eluted from the column with SDS buffer and separated in size by SDS-PAGE electrophoresis. The gel was Western blotted and the membrane probed with antibodies to proteins of interest.

“KRWNSCKQNKQGANSRPVNQTPPPEGEKL (c29- Fragment of p75ICD) [29 amino acid peptide of the p75NTR juxtamembrane Chopper domain; delivered to cells linked to PTD4 or disulfide-linked carrier]” was tested, and the “phosphorylated Erk1/2 in response to BDNF” value [1] was “enhanced trophic signaling”, the “pull down of EGF receptor” value (EGF receptor) was “did not pull down” and the “axotomised neurons that died” value [2] was 12%. For the same sequence, the “pull down of TrkA” value (TrkA) was “able to pull down TrkA”.
